Measurements: ChEMBL document CHEMBL5608180, “DNA G-quadruplexes in the genome of Trypanosoma cruzi as potential therapeutic targets for Chagas disease: Dithienylethene ligands as effective antiparasitic agents” (Eur J Med Chem, 2024)
Activity calls are given as the source filed them. The calls are words filed in the database; no cut-off is given here.

What was measured:
Trypanosoma cruzi [1] = assay: Antiparasitic activity against epimastigote form of Trypanosoma cruzi Y(TcII) assessed as inhibition of parasite growth incubated for 96 hrs followed by incubation with resazurin for 4 to 6 hrs by resazurin dye based fluorescence analysis; assay type: functional, organism-based
Trypanosoma cruzi [2] = assay: Antiparasitic activity against epimastigote form of Trypanosoma cruzi SOL(TcV) assessed as inhibition of parasite growth incubated for 96 hrs followed by incubation in dark with resazurin for 4 to 6 hrs by resazurin dye based fluorescence analysis; assay type: functional, organism-based
Trypanosoma cruzi [3] = assay: Antiparasitic activity against epimastigote form of Trypanosoma cruzi BM Lopez (TcIa) assessed as inhibition of parasite growth incubated for 96 hrs followed by incubation with resazurin for 4 to 6 hrs by resazurin dye based fluorescence analysis; assay type: functional, organism-based
Trypanosoma cruzi [4] = assay: Antiparasitic activity against epimastigote form of Trypanosoma cruzi DA (TcI) assessed as inhibition of parasite growth incubated for 96 hrs followed by incubation with resazurin for 4 to 6 hrs by resazurin dye based fluorescence analysis; assay type: functional, organism-based
[5] = Cytotoxicity against human MRC5 cells; assay type: toxicity, cell-based
[6] = Selectivity index, ratio of IC50 for cytotoxicity against human MRC5 cells to IC50 for antiparasitic activity against epimastigote form of Trypanosoma cruzi Y (TcII); assay type: toxicity, cell-based; conditions: read-out: Ratio IC50
[7] = Selectivity index, ratio of IC50 for cytotoxicity against human MRC5 cells to IC50 for antiparasitic activity against epimastigote form of Trypanosoma cruzi SOL (TcV); assay type: toxicity, cell-based; conditions: read-out: Ratio IC50
[8] = Selectivity index, ratio of IC50 for cytotoxicity against human MRC5 cells to IC50 for antiparasitic activity against epimastigote form of Trypanosoma cruzi BM Lopez (TcIa); assay type: toxicity, cell-based; conditions: read-out: Ratio IC50
[9] = Selectivity index, ratio of IC50 for cytotoxicity against human MRC5 cells to IC50 for antiparasitic activity against epimastigote form of Trypanosoma cruzi DA (TcI); assay type: toxicity, cell-based; conditions: read-out: Ratio IC50
Trypanosoma cruzi [10] = assay: Antiparasitic activity against trypomastigote form of Trypanosoma cruzi SOL (MHOM/ES/2008/SOL; DTU V) assessed as inhibition of parasite growth incubated for 96 hrs followed by incubation in dark with resazurin for 4 to 6 hrs by resazurin dye based fluorescence analysis; assay type: functional, organism-based
[11] = Selectivity index, ratio of IC50 for cytotoxicity against human MRC5 cells to IC50 for antiparasitic activity against trypomastigote form of Trypanosoma cruzi SOL (TcV); assay type: toxicity, cell-based; conditions: read-out: Ratio IC50
Quadruplex DNA [12] = assay: Stabilization of Trypanosoma cruzi G-quadruplex RCr DNA (FAM-5'-GGGGACGGGAATGGGGGTGCATGAGGGG-3'-TAMRA) assessed as change in apparent melting temperature at 5 uM by FRET melting analysis; assay type: nucleic-acid assay
Quadruplex DNA [13] = assay: Stabilization of Trypanosoma cruzi G-quadruplex MCr DNA (FAM-5'-GTGGAGGGGGAGGGTCATGGGG-3'-TAMRA) assessed as change in apparent melting temperature at 5 uM by FRET melting analysis; assay type: nucleic-acid assay
Quadruplex DNA [14] = assay: Stabilization of Trypanosoma cruzi G-quadruplex TCr DNA (FAM-5'-GGGAGGGACGGATGGGCAGAAACGGG-3'-TAMRA) assessed as change in apparent melting temperature at 5 uM by FRET melting analysis; assay type: nucleic-acid assay
Quadruplex DNA [15] = assay: Stabilization of human telomere G-quadruplex F21T DNA (FAM-5'-GGGTTAGGGTTAGGGTTAGGG-3'-TAMRA) assessed as change in apparent melting temperature at 5 uM by FRET melting analysis; assay type: nucleic-acid assay
Quadruplex DNA [16] = assay: Stabilization of human proto-oncogene G-quadruplex MYC DNA (FAM-5'-TTGAGGGTGGGTAGGGTGGGTAA-3'-TAMRA) assessed as change in apparent melting temperature at 5 uM by FRET melting analysis; assay type: nucleic-acid assay
dsDNA [17] = assay: Binding affinity to human duplex FdxT DNA (FAM-5'-TATAGCTAT-peg-TATAGCTATA-3'-TAMRA) at 5 uM by FRET melting analysis; assay type: nucleic-acid assay
Quadruplex DNA [18] = assay: Stabilization of Trypanosoma cruzi G-quadruplex RCr DNA (FAM-5'-GGGGACGGGAATGGGGGTGCATGAGGGG-3'-TAMRA) at 10 uM by FRET melting analysis; assay type: nucleic-acid assay
Quadruplex DNA [19] = assay: Stabilization of human telomere G-quadruplex F21T DNA (FAM-5'-GGGTTAGGGTTAGGGTTAGGG-3'-TAMRA) at 5 uM in presence of 1 to 10 uM double stranded ds26 DNA by FRET melting analysis; assay type: nucleic-acid assay
Quadruplex DNA [20] = assay: Stabilization of Trypanosoma cruzi G-quadruplex RCr DNA (FAM-5'-GGGGACGGGAATGGGGGTGCATGAGGGG-3'-TAMRA) at 5 uM in presence of 1 to 10 uM double stranded ds26 DNA by FRET melting analysis; assay type: nucleic-acid assay
Quadruplex DNA [21] = assay: Binding affinity to Trypanosoma cruzi G-quadruplex RCr DNA (FAM-5'-GGGGACGGGAATGGGGGTGCATGAGGGG-3'-TAMRA) assessed as broadening of imino proton signals with delta shift at 1 equiv. by 1H-NMR analysis; assay type: nucleic-acid assay
Quadruplex DNA [22] = assay: Binding affinity to Trypanosoma cruzi G-quadruplex MCr DNA (FAM-5'-GTGGAGGGGGAGGGTCATGGGG-3'-TAMRA) assessed as broadening of imino proton signals at 1 equiv. by 1H-NMR analysis; assay type: nucleic-acid assay
Quadruplex DNA [23] = assay: Binding affinity to Trypanosoma cruzi G-quadruplex TCr DNA (FAM-5'-GGGAGGGACGGATGGGCAGAAACGGG-3'-TAMRA) assessed as broadening of imino proton signals at 1 equiv. by 1H-NMR analysis; assay type: nucleic-acid assay
Quadruplex DNA [24] = assay: Binding affinity to Trypanosoma cruzi G-quadruplex RCr DNA (FAM-5'-GGGGACGGGAATGGGGGTGCATGAGGGG-3'-TAMRA) assessed as increase in melting temperature at DNA:compound concentration ratio of 1:2 by CD melting assay; assay type: nucleic-acid assay
Quadruplex DNA [25] = assay: Binding affinity to Trypanosoma cruzi G-quadruplex MCr DNA (FAM-5'-GTGGAGGGGGAGGGTCATGGGG-3'-TAMRA) at DNA:compound concentration ratio of 1:1 to 1:2 by CD melting assay; assay type: nucleic-acid assay
Quadruplex DNA [26] = assay: Binding affinity to Trypanosoma cruzi G-quadruplex RCr DNA (FAM-5'-GGGGACGGGAATGGGGGTGCATGAGGGG-3'-TAMRA) assessed as decrease in absorption with shift to higher wavelength at 30 uM by UV-Vis spectrophotometric analysis; assay type: nucleic-acid assay
Quadruplex DNA [27] = assay: Binding affinity to Trypanosoma cruzi G-quadruplex MCr DNA (FAM-5'-GTGGAGGGGGAGGGTCATGGGG-3'-TAMRA) assessed as decrease in absorption with shift to higher wavelength at 30 uM by UV-Vis spectrophotometric analysis; assay type: nucleic-acid assay
dsDNA [28] = assay: Binding affinity to double stranded ds26 DNA (unknown origin) assessed as decrease in absorbance with shift to lower wavelength at 30 uM by UV-Vis spectrophotometric analysis; assay type: nucleic-acid assay
Trypanosoma cruzi [29] = assay: Potency index, ratio of Benznidazole IC50 to test compound IC50 for antiparasitic activity against trypomastigote form of Trypanosoma cruzi SOL (MHOM/ES/2008/SOL; DTU V) by resazurin dye based fluorescence analysis; assay type: functional

SMILES	IC50 (Trypanosoma cruzi [1]) [µM]	IC50 (Trypanosoma cruzi [2]) [µM]	IC50 (Trypanosoma cruzi [3]) [µM]	IC50 (Trypanosoma cruzi [4]) [µM]	IC50 [5] [µM]	selectivity ratio [6]	selectivity ratio [7]	selectivity ratio [8]	selectivity ratio [9]	further results
C[C@]12SC(c3ccc(CN4CCCC4)cc3)=CC1=C1CCCC1=C1C=C(c3ccc(CN4CCCC4)cc3)S[C@@]12C	> 34	> 50	> 50	40.1	22.5	< 1	< 1	< 1	< 1	
CN(C)c1ccc(Nc2c3ccc(NC(=O)CCN4CCCC4)cc3nc3cc(NC(=O)CCN4CCCC4)ccc23)cc1	> 100	> 100	49.4	47.5		< 1	< 1	< 1	< 1	
CN(C)CCc1ccc(C2=CC3=C4CCCC4=C4C=C(c5ccc(CCN(C)C)cc5)S[C@]4(C)[C@@]3(C)S2)cc1	31.1	45.1	> 48.4	13.4	6.1	< 1	< 1	< 1	< 1	
C[C@]12SC(c3ccc(N4CCNCC4)cc3)=CC1=C1CCCC1=C1C=C(c3ccc(N4CCNCC4)cc3)S[C@@]12C	> 50	> 50	> 50	32	4.3	< 1	< 1	< 1	< 1	
NCCOc1cc(C(=O)Nc2cc(OCCN)c3ccccc3n2)nc(C(=O)Nc2cc(OCCN)c3ccccc3n2)c1 [PYRIDOSTATIN]	> 100	> 100	> 100	> 100		< 1	< 1	< 1	< 1	
O=C(Cn1ccnc1[N+](=O)[O-])NCc1ccccc1 [BENZNIDAZOLE]	20.3	11.2	6.3		47.2	2.3	4.2	7.5		IC50 (Trypanosoma cruzi [10]): 57.1 µM; selectivity ratio [11]: < 1
C[C@]12SC(c3ccc(-c4ccncc4)cc3)=CC1=C1CCCC1=C1C=C(c3ccc(-c4ccncc4)cc3)S[C@@]12C	42.8	> 50	60.1	36.6	4.9	< 1	< 1	< 1	< 1	

More lines, main results first:

IC50 (Trypanosoma cruzi [1]) [µM]	IC50 (Trypanosoma cruzi [2]) [µM]	IC50 (Trypanosoma cruzi [3]) [µM]	IC50 (Trypanosoma cruzi [4]) [µM]	SMILES	IC50 [5] [µM]	selectivity ratio [6]	selectivity ratio [7]	selectivity ratio [8]	selectivity ratio [9]	further results
6.6	9.75	4.6	6.1	Cc1sc(-c2ccc(CN3CCCC3)cc2)cc1C1=C(c2cc(-c3ccc(CN4CCCC4)cc3)sc2C)CCC1	7.2	1.1	< 1	1.6	1.2	
13.9	> 18.3	> 25.6	30.2	C[C@]12SC(c3ccncc3)=CC1=C1CCCC1=C1C=C(c3ccncc3)S[C@@]12C	3.3	< 1	< 1	< 1	< 1	
20.9	22.3	40.7	20.6	C[C@]12SC(c3ccc4cccnc4c3)=CC1=C1CCCC1=C1C=C(c3ccc4cccnc4c3)S[C@@]12C	82.5	3.9	3.7	2	4	IC50 (Trypanosoma cruzi [10]): 3.3 µM; selectivity ratio [11]: 25; ΔTm (Quadruplex DNA [12]): 17 °C; ΔTm (Quadruplex DNA [13]): 14 °C; ΔTm (Quadruplex DNA [14]): 17 °C; ΔTm (Quadruplex DNA [15]): 17 °C; ΔTm (Quadruplex DNA [16]): 17 °C; Activity (dsDNA [17]): inactive; Activity (Quadruplex DNA [18]): Active; Activity (Quadruplex DNA [19]): Active; Activity (Quadruplex DNA [20]): Active; Activity (Quadruplex DNA [21]): Active; Activity (Quadruplex DNA [22]): Active; Activity (Quadruplex DNA [23]): Active; ΔTm (Quadruplex DNA [24]): 3.81 °C; Activity (Quadruplex DNA [25]): Active; Activity (Quadruplex DNA [26]): Active; Activity (Quadruplex DNA [27]): Active; Activity (dsDNA [28]): inactive; Ratio IC50 (Trypanosoma cruzi [29]): 17
29.5	30.8	29.8	13.9	Cc1sc(-c2ccc(N3CCNCC3)cc2)cc1C1=C(c2cc(-c3ccc(N4CCNCC4)cc3)sc2C)CCC1	8	< 1	< 1	< 1	< 1	
22.8	20.4	22.7	14.4	Cc1sc(-c2cccc3c2ccc[n+]3C)cc1C1=C(c2cc(-c3cccc4c3ccc[n+]4C)sc2C)CCC1	20.5	< 1	1	< 1	1.4	
14.2	21.2	19.1	6.8	Cc1sc(-c2ccc(CC[N+](C)(C)C)cc2)cc1C1=C(c2cc(-c3ccc(CC[N+](C)(C)C)cc3)sc2C)CCC1	2.7	< 1	< 1	< 1	< 1	
14	37.1	25.2	28.4	Cc1sc(-c2ccc(-c3cc[n+](C)cc3)cc2)cc1C1=C(c2cc(-c3ccc(-c4cc[n+](C)cc4)cc3)sc2C)CCC1	2.2	< 1	< 1	< 1	< 1	
23.1	> 27.4	> 28.6	> 28.2	Cc1sc(-c2cc[n+](C)cc2)cc1C1=C(c2cc(-c3cc[n+](C)cc3)sc2C)CCC1	2.4	< 1	< 1	< 1	< 1	
3.6	3.8	4	2.7	Cc1sc(-c2ccc(CCN(C)C)cc2)cc1C1=C(c2cc(-c3ccc(CCN(C)C)cc3)sc2C)CCC1	2.6	< 1	< 1	< 1	< 1	
